{"source": "patent US7223543B2", "about": "“Conjugated linoleic acid isomerase and a process for the production of conjugated linoleic acid” (Teagasc Dairy Products Research Centre, priority 2001, dated 2007)", "tested_on": "B.breve 2258", "assay": "Growth inhibition of B.breve 2258 by trilinolein compared with free linoleic acid", "format": "cell-based, Bifidobacterium breve", "conditions": "compared with similar concentrations of free linoleic acid", "source_text": "B.breve NCFB 2258 was further investigated for ability to utilise triglyceride bound linoleic acid as substrate for CLA production. B.breve NCFB 2258 was inoculated from a fully grown culture into MRS broth with added cysteine (0.05%) and trilinolein (C18:2, cis-9, cis-12, 99% pure, Sigma Chemical Co.), soybean oil and sunflower oil (purchased from a local grocery store) containing known linoleic acid concentrations. The triglyceride mixtures were sterile-filtered through 0.45 μm […] filters and added as 5 mg/ml aqueous solutions in 2.5% (v/v) Tween 80. Substantial vortexing was required to dissolve the fat particles. The volume of the triglyceride stock solutions added was calculated to give a final concentration of 0.2 mg linoleic acid/ml of broth. B.breve 2258 was inoculated into MRS broth in the presence of the triglyceride substrates under anaerobic conditions at 37° C. and incubated for 48 h.", "data": [{"smiles": "CCCCC/C=C\\C/C=C\\CCCCCCCC(=O)OCC(COC(=O)CCCCCCC/C=C\\C/C=C\\CCCCC)OC(=O)CCCCCCC/C=C\\C/C=C\\CCCCC", "note": "[trilinolein]", "values": [{"measurement": "growth inhibition of B.breve 2258", "value": "did not inhibit the growth of B.breve 2258 to the same extent as similar concentrations of free linoleic acid"}]}]}
